Test results: US10537611B2, “Methods of treating lung cancer” (Five Prime Therapeutics, Inc., priority 2011, dated 2020)

How the values were obtained:
[1] = system: FGFR1 signaling (pFGFR1, pFRS2α, pAkt) in JIMT-1 tumors; assay: FGFR1 signaling in JIMT-1 breast cancer xenograft (western blotting); format: in vivo, mouse; conditions: for Phosphorylated Akt levels / Phosphorylated FRS levels: 15 mg/kg i.p.
Description: Animals with established (200 mm3) human breast cancer JIMT-1 tumors were administered either a single (24 and 72 hour timepoints) or three times per week (multidose) i.p. dose(s) of FGFR1-ECD.339-Fc at 15 mg/kg. Tumor samples were collected at 24 and 72 hours post-dose for the single dose groups and 48 hours post the last dose in multi-dose group, snap-frozen in liquid nitrogen and lyzed in RIPA buffer (Sigma Aldrich, St Luis, Mo.). Tumor lysates were separated by SDS-PAGE and western blotting was performed using monoclonal antibodies FGFR1, pFGFR1, FRS2α, pFRS2α, Akt, pAkt, and βActin (Cell Signaling Technology, Inc). FGFR1-ECD.339-Fc was detected using anti-human Fc monoclonal antibody (Jackson Immuno Research).

[2] = system: lung cancer xenografts without FGFR1 gene amplification; assay: Tumor growth inhibition, lung cancer xenografts without FGFR1 gene amplification (average); format: in vivo, mouse; conditions: AUC analysis vs albumin control
Excerpt: (§1) The impact of FGFR1-ECD.339-Fc on tumor growth was compared between FGFR1 gene amplified and non-amplified lung cancer xenograft models. Lung cell lines without FGFR1-amplification examined in this experiment were as follows: A549, NCI-H460, NCI-H226, NCI-H2126, NCI-H441, NCI-H358, NCI-H522 and Colo699. Non-amplified cell lines were purchased from ATTC (Manassas, Va.) and cultured according to supplier instructions. Lung cancer xenograft models using non-FGFR1 gene amplified cell lines were carried out substantially as described in Example 2.
A panel of patient-derived xenograft (PDX) models of lung cancer without FGFR1-amplification was also examined for sensitivity to FGFR1-ECD.339-Fc. […]
Tumor sizes were measured in each mouse on days 11, 18, 25, 32, 39 and 46 following the day of tumor cell inoculation. The length and width of each tumor was measured using calipers and the tumor size calculated according to the formula: Tumor size (mm^3)=[…] Mice were euthanized as a “cancer death” when the subcutaneous tumor volumes exceeded 2000 mm^3 or when the tumors became excessively necrotic.
Percentage tumor growth inhibition by FGFR1-ECD.339-Fc was determined by area-under-the-curve (AUC) analysis of xenograft growth curves treated with FGFR1-ECD.339-Fc compared to albumin control. […]

NCI-H441 xenograft model = assay: NCI-H441 xenograft tumor growth inhibition; format: in vivo, mouse; conditions: Lung NCI-H441; IP 15 mg/kg BIW; non-amplified; P ns
Excerpt: as §1
Percentage tumor growth inhibition by FGFR1-ECD.339-Fc was determined by area-under-the-curve (AUC) analysis of xenograft growth curves treated with FGFR1-ECD.339-Fc compared to albumin control. […] The difference in FGFR1-ECD.339-Fc-mediated xenograft inhibition between FGFR1 gene amplified and non-amplified lung cancer xenograft models was statistically significant (P=0.0333).

[3] = system: MSTO-211H xenograft model; assay: MSTO-211H mesothelioma xenograft tumor growth inhibition; format: in vivo, mouse; conditions: Mesothelioma MSTO-211H, IP 15 mg/kg BIW, non-amplified, P < 0.0001
Excerpt: (§2) An exemplary xenograft experiment is as follows. For Caki-1 and MSTO-211H, five million cells were implanted subcutaneously over the right flank of SCID mice (N=10 per group). […] Representative tumor growth curves are shown for a renal cancer, Caki-1, (A), and mesothelioma, MSTO-211H, (B) xenograft cancer model. […] In the MSTO-211H mesothelioma model, FGFR1-ECD.339-Fc administration reduced tumor growth (FIG. 16b) by 64% (P<0.0001).

[4] = system: Caki-1 renal cell carcinoma xenograft, CD31; assay: Tumor angiogenesis (CD31 immunostaining) in Caki-1 xenograft; format: in vivo, mouse; conditions: Caki-1 tumors; 5 mg/kg intravenously twice a week; Day 57
Description: Human renal carcinoma Caki-1 cells (1.5×10^7 cells/mouse) cells were implanted subcutaneously into the right flank of CB17-SCID mice. One day after tumor implantation, the mice were randomized and treated intravenously with either vehicle or FGFR1-ECD.339-Fc (5 mg/kg) twice a week. At the end of the study (Day 57), tumors were excised (N=3/gp) and used for histological analysis. Frozen sections were probed with anti-mouse CD31 monoclonal antibody (BD Biosciences, Franklin Lakes, N.J.) and visualized using HRP-conjugated secondary antibody coupled with diaminobenzidine staining (brown color). Slides were counter-stained with hematoxylin to identify cell nuclei (blue color). Representative sections are shown (5× magnification).

[5] = Histological analysis of 55 tissues in rats; format: in vivo, rat; conditions: high-dose
Description: At the 200 mg/kg/qwk dose the maximal plasma concentration of the drug was 3.6 and 4.2 mg/ml for female and male rats, respectively (FIG. 18A).

[6] = system: panel of 35 xenograft models; assay: Anti-tumor activity in a panel of xenograft models; format: in vivo, mouse; conditions: panel of Table 5
Excerpt: Also shown in Table 5 are the dosing schedule for FGFR1-ECD.339-Fc in a mouse xenograft model, the percent tumor growth inhibition (TGI (%)) and the statistical significance of the tumor growth inhibition (P Value), as well as whether the FGFR1 gene is amplified in the cell line.
as §2

[7] = two days later (72 hours post-dose)

FGFR1-ECD.339-Fc: human FGFR1 extracellular domain ending at amino acid 339 fused to an Fc; SEQ ID NO: 6 (mature form), SEQ ID NO: 5 with signal peptide
levels of phosphorylated FGFR1 ([1]; 15 mg/kg i.p. single dose, 24 hours post-dose): reduced | FGFR1 phosphorylation ([1]; 15 mg/kg i.p. single dose, 72 hours post-dose): completely abolished | Phosphorylated Akt levels ([1]; 24 hours post-dose): reduced | Phosphorylated FRS levels ([1]; 24 hours post-dose): reduced | Phosphorylated Akt levels [1, 7]: further reduced | Phosphorylated FRS levels [1, 7]: further reduced | average decrease in xenograft growth [2]: 22% | TGI (%) (NCI-H441 xenograft model): 0% | TGI (%) [3]: 64% | CD31 staining (tumor angiogenesis) [4]: reduced CD31 staining | histological changes (hyperphosphatemia-related calcium-phosphorus deposition) [5]: failed to reveal any changes | Responses observed (models responding / models examined) [6]: 19/35 | range of inhibition in responding models [6]: 25-96%
